Test results from PMC5271370, “A High-Content Assay Enables the Automated Screening and Identification of Small Molecules with Specific ALDH1A1-Inhibitory Activity” (PLoS ONE, 2017).
Read-outs that look alike come from different tables or passages of the source.

Tests used:
[1] = test system: ALDH3A1; conditions: reported ALDH target 3A1; read-out: Reported Biochemical IC50, ALDH3A1; cited from earlier work
[2] = test system: ALDH1A2; conditions: reported ALDH target 1A2; read-out: Reported Biochemical IC50, ALDH1A2; cited from earlier work
[3] = test system: LN-229 cells; test: 1,536-well high-content imaging ALDEFLUOR assay, LN-229; format: cell-based, human
Experimental: We next sought to test if the fully automated high-content assay could be used to detect ALDH1A1-specific inhibitors.
The ALDEFLUOR kit was purchased from […] Technologies (Vancouver, Canada; #01700). Cells (5 μL) were dispensed into black, optical quality (cyclic olefin copolymer) clear bottom, medium binding TC treated 1,536-well plates (Aurora Microplates, Whitefish MT) using a Multidrop Combi dispenser (ThermoFisher) and incubated overnight (37°C, 5% CO2, 85% RH). Media was subsequently removed by centrifuging plates upside down using a plate adaptor to collect media. A solution of BAAA substrate ([…] Technologies) and Hoechst 33342 (ThermoFisher, final concentrations of 500 nM and 0.5 nM, respectively) in ALDEFLUOR buffer ([…] Technologies #01700) was dispensed onto cells using a Multidrop Combi followed by immediate transfer (23 nL) of compound or control solutions using a Wako Pin-tool (final percentage of DMSO in the cell plates was 0.5%). Unless otherwise noted, all compounds were assayed as 16-point dilutions spanning a final concentration range of 1.4 nM to […]. […] Cells were incubated for 30 minutes or the indicated amount of time at 37°C, 5% CO2, 85% RH to allow the conversion of BAAA into BAA. Supernatant was subsequently removed by centrifugation as described above, then ALDEFLUOR buffer (3 μl) was dispensed by Multidrop Combi before imaging on an IN Cell 2200 (GE Healthcare).
The above assay was modified for an online robotic screening system. After cell plating and overnight incubation, 4 μL of media were removed using a 64-tip metal aspirator head on a Wako aspirator station, leaving 1 μL remaining in the well, followed by a 4 μL dispense of BAAA and Hoechst 33342 in ALDEFLUOR buffer, for a final concentration of 500 nM and 0.5 nM, respectively. Immediately following the dispense, 23 nL of compound or control solutions were transferred using a Wako Pin-tool. […] Plates were then immediately read on the IN Cell 2200 as described below.
For images captured on the IN Cell 2200 widefield automated microscope, a 10x 0.45 NA Plan Apo objective lens was used to capture the entire well of the 1,536-well plate using standard DAPI (390/18x, 432/48m) and FITC (475/28x, 525/48m) filter sets at 50 msec and 100 msec exposures, respectively. Images were subsequently analyzed using IN Cell Investigator v1.6.2 analysis software’s canned Multi-Target Analysis algorithm (GE Healthcare). […]
The same controls were also used for the calculation of the Z’ factor for each assay. The Z’ factor, a measure of assay quality control, was determined as previously described. […] All concentration–response curves were fitted as before and IC50 were calculated with the GraphPad Prism software.

[4] = test system: ALDH1A3; conditions: reported ALDH target 1A3; read-out: Reported Biochemical IC50, ALDH1A3; cited from earlier work

COc1ccc(C(=O)CCN(C)C)cc1F [Aldi-2]
IC50 [1]: 1.9 µM

CC(C)(C)c1ccc(S(=O)(=O)/C=C/C#N)cc1 [Bay-11-7085]
IC50 [1]: 0.1 µM

CCN(CC)c1ccc(C=O)cc1 [DEAB, 4-N,N-diethylaminobenzaldehyde]
IC50 [2]: 1.2 µM
IC50 ([3]; 1,000 cells/well, 500 nM substrate, 30 minutes, read-out: ALDEFLUOR IC50 LN-229): ~3.48 µM
IC50 [4]: 3 µM

CC(C)N(C(=O)CCl)c1ccccc1 [Propachlor]
IC50 ([3]; Homo sapiens, LN-229, read-out: ALDEFLUOR IC50 LN229, retest of screen hits, 11-point dose response 0.77 nM to 45.8 μM): 16 µM
IC50 ([3]; read-out: ALDEFLUOR IC50 LN229, retest of screen hits, 11-point dose response 0.77 nM to 45.8 μM): 16.1 µM
